In the Deep4Chem optical property database:
Each block holds one compound with its values, some of them ahead of it.

Assay: solvent given as SMILES

Structure (SMILES): Cc1cc(C)n2c1C=C1c3ccccc3C(c3cccn3C)=[N+]1[B-]2(F)F
emission maximum (in C1CCOC1): 608 nm
emission maximum (in CC#N): 606 nm
emission maximum (in CCCCCC): 605 nm
emission maximum (in CO): 605 nm
emission maximum (in Cc1ccccc1): 613 nm
emission maximum (in ClCCl): 611 nm

Structure (SMILES): COc1ccc(-c2c3ccc([nH]3)c3nc(c(-c4ccc(C#N)cc4)c4ccc([nH]4)c4ccc([nH]4)c(-c4ccc(OC)cc4)c4ccc2o4)C=C3)cc1
emission maximum (in C1CCOC1): 736 nm
emission maximum (in Cc1ccccc1): 724 nm
emission maximum (in c1ccccc1): 724 nm

Structure (SMILES): CCCCCCCCCCCCOc1cc2c3cc(OCCCCCCCCCCCC)c(OCCCCCCCCCCCC)cc3c3c(cc(OCCCCCCCCCCCC)c4nc5cc(C#Cc6ccc(OCCCCCCCC)cc6)c(C#Cc6ccc(OCCCCCCCC)cc6)cc5nc43)c2cc1OCCCCCCCCCCCC
emission maximum (in ClC(Cl)Cl): 657 nm

Structure (SMILES): CC1=CC(c2ccc3cc(N(C)C)ccc3c2)=[O+][B-](F)(F)O1
emission maximum (in C1CCOC1): 566 nm
emission maximum (in CC#N): 611 nm
emission maximum (in CC(C)=O): 492 nm
emission maximum (in CS(C)=O): 624 nm
emission maximum (in Cc1ccccc1): 521 nm
emission maximum (in ClC(Cl)Cl): 552 nm
emission maximum (in ClCCl): 574 nm

Structure (SMILES): Cc1ccc(N(c2ccc(C)cc2)c2c3ccccc3c(N(c3ccc(C)cc3)c3ccc(C)cc3)c3ccccc23)cc1
emission maximum (in Cc1ccccc1): 533 nm

Structure (SMILES): O=C1c2ccccc2C2=Cc3ccccc3B(O)N12
emission maximum (in CC#N): 432 nm
emission maximum (in CO): 430 nm
emission maximum (in CS(C)=O): 438 nm
emission maximum (in ClC(Cl)Cl): 437 nm

Structure (SMILES): CCOC(=O)/C=C/c1cc2ccc(O)cc2oc1=O
emission maximum (in CCO): 430 nm

Structure (SMILES): CC(C)[Si]1(C(C)C)c2cc(C=O)ccc2-c2ccc(N(C)C)cc21
emission maximum (in C1CCCCC1): 414 nm
emission maximum (in CC#N): 528 nm
emission maximum (in CCO): 565 nm
emission maximum (in CCOCC): 449 nm
emission maximum (in CS(C)=O): 541 nm
emission maximum (in ClCCl): 501 nm
emission maximum (in c1ccccc1): 450 nm

Structure (SMILES): C(=C\c1cc(/C=C/c2ccc(N(c3ccccc3)c3ccccc3)cc2)nc(/C=C/c2ccc(N(c3ccccc3)c3ccccc3)cc2)n1)/c1ccc(N(c2ccccc2)c2ccccc2)cc1
emission maximum (in C1CCOC1): 514 nm
emission maximum (in CC#N): 589 nm
emission maximum (in CC(C)=O): 555 nm
emission maximum (in CCCCCCC): 460 nm
emission maximum (in CS(C)=O): 586 nm
emission maximum (in Cc1ccccc1): 479 nm
emission maximum (in ClCCl): 544 nm

Structure (SMILES): CCCCC(CC)CN1C(=O)c2cc(Oc3ccc(C(C)(C)C)cc3)c3c4c(Cl)cc5c6c(cc(Cl)c(c7c(Oc8ccc(C(C)(C)C)cc8)cc(c2c37)C1=O)c64)C(=O)N(c1c(C(C)C)cccc1C(C)C)C5=O (stereo not drawn)
emission maximum (in Cc1ccccc1): 606 nm

Structure (SMILES): N#Cc1ccc2c(c1)CCc1nc(-c3ccc([N+](=O)[O-])cc3)c3c(c1-2)CCc1cc(C#N)ccc1-3
emission maximum (in C1CCOC1): 469 nm
emission maximum (in CC#N): 525 nm
emission maximum (in CCCCCC): 413 nm
emission maximum (in CCOC(C)=O): 452 nm
emission maximum (in CO): 475 nm
emission maximum (in CS(C)=O): 510 nm
emission maximum (in Cc1ccccc1): 443 nm
emission maximum (in ClCCl): 475 nm

Structure (SMILES): CC1=CC(C)=[N+]2C1=C(c1ccc(-c3ccc(OS(=O)(=O)c4ccc([N+](=O)[O-])cc4[N+](=O)[O-])cc3)s1)c1c(C)cc(C)n1[B-]2(F)F
emission maximum (in CO): 523 nm
emission maximum (in Cc1ccccc1): 530 nm
emission maximum (in ClCCl): 528 nm

Structure (SMILES): COc1ccc2c(c1)CCC1=C(C#Cc3ccc(Cl)cc3)O[B-](F)(F)[O+]=C12
emission maximum (in ClCCl): 472 nm

Structure (SMILES): O=C(O)C1=C(C(=O)O)C2=C[C@H]3c4ccccc4[C@]2([Se]1)c1ccccc13
emission maximum (in ClCCl): 507 nm

Structure (SMILES): CCCCCCCCN1c2ccc(C#Cc3ccc(OC)cc3)cc2Sc2cc(C=O)ccc21
emission maximum (in C1CCOC1): 512 nm
emission maximum (in CC#N): 538 nm
emission maximum (in CCCCCC): 494 nm
emission maximum (in CO): 464 nm
emission maximum (in CS(C)=O): 524 nm
emission maximum (in Cc1ccccc1): 510 nm
emission maximum (in ClC(Cl)Cl): 524 nm

Structure (SMILES): c1ccc([B-]23NC(C4CCCCC4)=Nc4cccc([n+]42)N=C(C2CCCCC2)N3)cc1
emission maximum (in ClCCl): 456 nm

Structure (SMILES): COc1ccc2c3c([nH]c2c1)C(C)=NCC3
emission maximum (in CC#N): 480 nm
emission maximum (in CS(C)=O): 420 nm
emission maximum (in O): 480 nm

Structure (SMILES): N#Cc1c(-n2c3ccccc3c3cc(I)ccc32)c(C#N)c(-n2c3ccccc3c3cc(I)ccc32)c(-n2c3ccccc3c3cc(I)ccc32)c1-n1c2ccccc2c2cc(I)ccc21
emission maximum (in Cc1ccccc1): 518 nm

Structure (SMILES): COC(=O)c1ccc2ccc3cccc4ccc1c2c34
emission maximum (in C1CCOC1): 388 nm
emission maximum (in CC#N): 389 nm
emission maximum (in CCCCCC): 385 nm
emission maximum (in CCO): 391 nm
emission maximum (in CN(C)C=O): 391 nm
emission maximum (in CO): 392 nm
emission maximum (in Cc1ccccc1): 390 nm
emission maximum (in ClCCl): 390 nm

Structure (SMILES): Cc1ccc2c(c1)C1(c3ccccc3Oc3ccccc31)c1cc(C)ccc1N2c1ccc(-c2ncccn2)cc1
emission maximum (in Cc1ccccc1): 454 nm
emission maximum (in O=P(c1ccccc1)(c1ccccc1)c1ccc2oc3ccc(P(=O)(c4ccccc4)c4ccccc4)cc3c2c1): 458 nm

Structure (SMILES): C#CCNC1=C2C(C)=CC(C)=[N+]2[B-](F)(F)n2c(C)cc(C)c21
emission maximum (in C1CCCCC1): 501.5 nm
emission maximum (in CC(C)=O): 496 nm
emission maximum (in CCOC(C)=O): 497 nm
emission maximum (in CO): 496 nm
emission maximum (in OCC(F)(F)F): 494.5 nm

Structure (SMILES): CCCCCCCCCCCCC1(CCCCCCCCCCCC)c2cc(-c3ccc(C=C4C(=O)c5ccccc5C4=O)cc3)ccc2-c2ccc(-c3ccc(C=C4C(=O)c5ccccc5C4=O)cc3)cc21
emission maximum (in C1CCOC1): 531 nm
emission maximum (in CC(C)=O): 566 nm
emission maximum (in CCCCCC): 463 nm
emission maximum (in CS(C)=O): 598 nm
emission maximum (in Cc1ccccc1): 490 nm
emission maximum (in ClC(Cl)Cl): 529 nm

Structure (SMILES): c1cc2ccc3[se]c4ccc5cccc6c(c1)c2c3c4c56
emission maximum (in ClC(Cl)Cl): 424 nm

Structure (SMILES): CC(C)(C)c1ccc2c(c1)c1cc(C(C)(C)C)ccc1n2-c1ccc(N(c2ccc(-c3ccc(-c4ccc(-c5ccc(N(c6ccc(-n7c8ccc(C(C)(C)C)cc8c8cc(C(C)(C)C)ccc87)cc6)c6ccc(-n7c8ccc(C(C)(C)C)cc8c8cc(C(C)(C)C)ccc87)cc6)cc5)s4)s3)cc2)c2ccc(-n3c4ccc(C(C)(C)C)cc4c4cc(C(C)(C)C)ccc43)cc2)cc1
emission maximum (in ClCCl): 494 nm

Structure (SMILES): C1=C(c2ccccc2)C2=Nc3c(-c4ccccc4)cc4n3[B-]3(Oc5ccccc5C1=[N+]23)Oc1ccccc1-4 (stereo not drawn)
emission maximum (in Cc1ccccc1): 746 nm

Structure (SMILES): Cc1c2ccncc2c(C)c2c1[nH]c1ccccc12
emission maximum (in C1CCCCC1): 392 nm
emission maximum (in C1CCOC1): 413 nm
emission maximum (in C1COCCO1): 410 nm
emission maximum (in CC#N): 420 nm
emission maximum (in CC(C)(C)O): 420 nm
emission maximum (in CC(C)O): 424 nm
emission maximum (in CCC(C)(C)O): 419 nm
emission maximum (in CCCCCC): 390 nm
emission maximum (in CCCCO): 427 nm
emission maximum (in CCO): 429 nm
emission maximum (in CCOC(C)=O): 410 nm
emission maximum (in CCOCC): 405 nm
emission maximum (in CN(C)C=O): 425 nm
emission maximum (in CO): 434 nm
emission maximum (in CS(C)=O): 428 nm
emission maximum (in Cc1ccccc1): 403 nm

Structure (SMILES): CC1(C)c2cc(-n3c4ccccc4c4ccccc43)ccc2N(c2ccc(-c3cc(-c4ccccc4)nc(-c4ccccc4)n3)cc2)c2ccc(-n3c4ccccc4c4ccccc43)cc21
emission maximum (in Cc1ccccc1): 494.44 nm

The next lines start with the values.

emission maximum (in ClCCl): 420 nm
Structure (SMILES): N#Cc1cccc(-c2cccc(-c3nc(-c4cccc(-c5cccc(C#N)c5)c4)nc(-c4cccc(-c5cccc(C#N)c5)c4)n3)c2)c1

emission maximum (in CS(C)=O): 523.5 nm
Structure (SMILES): Clc1ccc(-c2nc3ccccc3c3cc4ccccn4c23)s1

emission maximum (in C1CCOC1): 379.1 nm
Structure (SMILES): CCCCCCCCCCn1c(-c2cc(-c3nc4ccc(C)cc4n3CCCCCCCCCC)cc(-c3nc4ccc(C)cc4n3CCCCCCCCCC)c2)nc2ccc(C)cc21

emission maximum (in C1COCCO1): 493 nm
Structure (SMILES): COC(=O)c1ccc(/C=C2\C=C(c3ccc([N+](=O)[O-])cc3)OC2=O)cc1

emission maximum (in ClCCl): 445 nm
Structure (SMILES): CCN(CC)c1ccc2c(c1)oc(=O)c1cnc3c(c(C)nn3-c3ccccc3)c12

emission maximum (in c1ccccc1): 434 nm
Structure (SMILES): CON(C)C(=O)c1ccc(/C=C/c2ccc(/C=C/c3ccc(C(=O)N(C)OC)cc3)cc2)cc1

emission maximum (in ClCCl): 373 nm
Structure (SMILES): CC1(C)c2ccccc2-c2cc3c(cc21)c1ccccc1n3-c1cccnc1

emission maximum (in CC#N): 452 nm
emission maximum (in CCOC(C)=O): 419 nm
emission maximum (in CN(C)C=O): 458 nm
emission maximum (in CS(C)=O): 466 nm
emission maximum (in c1ccccc1): 400 nm
Structure (SMILES): CCOC(=O)CN(CC(=O)OCC)c1ccc(-c2cc(-c3ccccn3)nc(-c3ccccn3)c2)cc1

emission maximum (in C1CCCCC1): 314 nm
Structure (SMILES): CCCC1(CCC)c2ccccc2-c2ccc(-c3ccc(C(C)(C)C)cc3)cc21

emission maximum (in ClCCl): 493 nm
Structure (SMILES): COc1ccc(C#CC2=C3CCc4ccccc4C3=[O+][B-](F)(F)O2)cc1

emission maximum (in CCOC(C)=O): 398 nm
Structure (SMILES): c1cc2ccc3cc4[nH]ccc4c4ccc(c1)c2c34

emission maximum (in C1CCCCC1): 447 nm
emission maximum (in C1CCOC1): 518 nm
emission maximum (in CC#N): 565 nm
emission maximum (in CS(C)=O): 568 nm
emission maximum (in ClCCl): 534 nm
Structure (SMILES): c1ccc(N(c2ccccc2)c2ccc(-c3nc(-c4ccc(N(c5ccccc5)c5ccccc5)cc4)c4ccccc4n3)cc2)cc1

emission maximum (in CC1CCCCC1): 501 nm
emission maximum (in CC#N): 503 nm
Structure (SMILES): C(=C\c1c2ccccc2cc2ccccc12)/c1cccc2ccccc12

emission maximum (in ClCCl): 652 nm
Structure (SMILES): CCCCN1C(=O)c2cc(Oc3ccc(C(C)(C)C)cc3)c3c4c(Oc5ccc(C(C)(C)C)cc5)cc5c(=O)[nH]/c(=C\c6ccccn6)c6cc(Oc7ccc(C(C)(C)C)cc7)c(c7c(Oc8ccc(C(C)(C)C)cc8)cc(c2c37)C1=O)c4c56

emission maximum (in ClC(Cl)Cl): 683 nm
Structure (SMILES): COc1ccc(-c2cc3c(o2)=CC2=Cc4cc5oc(-c6ccc(OC)cc6)cc5n4[B-](F)(F)[N+]=32)cc1

emission maximum (in ClC(Cl)Cl): 388 nm
Structure (SMILES): N#Cc1c(C#N)c2cc(Cl)ccc2c2ccc(Cl)cc12

emission maximum (in ClCCl): 430 nm
Structure (SMILES): O=C1c2cc3ccccc3cc2C2=Nc3ccc4ccccc4[n+]3[B-](F)(F)N12

emission maximum (in CC#N): 527 nm
emission maximum (in CCCCCC): 532 nm
emission maximum (in CCOC(C)=O): 529 nm
emission maximum (in CO): 526 nm
emission maximum (in ClCCl): 531 nm
Structure (SMILES): COc1ccc2n1[B-](F)(F)[N+]1=C(SC#N)C=CC1=C2c1ccccc1

emission maximum (in ClC(Cl)Cl): 624 nm
Structure (SMILES): Cc1cc(C)c(C2=C3C=CC(c4ccc5c(ccc6ccccc65)c4)=[N+]3[B-](F)(F)n3c2ccc3-c2ccc3c(ccc4ccccc43)c2)c(C)c1

emission maximum (in ClCCl): 504 nm
Structure (SMILES): COc1ccc(-c2c3ccccc3c(C#Cc3ccccc3)c3cc4cc(C)sc4cc23)cc1

emission maximum (in ClCCl): 545 nm
Structure (SMILES): c1ccc(C2=C(c3ccccc3)c3cccc4c5c(cc(c34)O2)=NC2CCCCC2N=5)cc1 (stereo not drawn)
